What was measured:
gastric acid secretion = assay: gastric antisecretory activity in pentagastrin-stimulated Heidenhain pouch dogs; type: in vivo; settings: conscious Heidenhain pouch dogs, pentagastrin infusion, drug given intravenously; for inhibition in vivo at up to 10 mg/kg: Canis lupus familiaris, iv, doses of 10 mg/kg or less, lowest acid output after drug vs mean output before drug; for inhibition of acid: dosage of 1 mg/kg
Description: The activity of the compounds of the present invention as antisecretory agents and histamine-H2 antagonists may be determined by standard pharmacological tests, including for example (1) measuring their ability to antagonize the actions of histamine which are not blocked by an antihistamine such as mepyramine and (2) measuring their ability to inhibit gastric acid secretion in the stomachs of Heidenhain pouch dogs that had previously been treated with pentagastrin in order to stimulate the secretion of gastric acid.
The gastric antisecretory activity of compounds of the present invention was determined in overnight fasted, conscious Heidenhain pouch dogs. Pentagastrin (Peptavlon-Ayerst) was used to stimulate acid output by continuous infusion into a superficial leg vein at doses earlier determined to stimulate near maximal acid output from the gastric pouch. Gastric juice was collected at 30 minute intervals following the start of a pentagastrin infusion and measured to the nearest 0.1 ml. Ten collections were taken for each dog during an experiment. Acid concentration was determined by titrating 1.0 ml of gastric juice to pH 7.4 with 0.1N sodium hydroxide using an Autoburette and a glass electrode pH meter (Radiometer).
[…] Gastric acid . antisecxetory effects were calculated by comparing the lowest acid output after drug administration with the mean acid output immediately before drug.

H2-receptor = biological target: T1, H2-receptor (Cavia porcellus, UniProt P47747); assay: histamine-H2 antagonist activity in isolated guinea pig right atria (histamine dose-response, dose-ratios, pA2); type: cell-based, Guinea pigs; settings: antagonism of histamine-stimulated atrial rate, Krebs-Henseleit buffer pH 7.4, 32°
T1 construct: from tissue; host or cells: isolated guinea pig right atria
Experimental: The histamine-H2 antagonist activity of compounds of the present invention was determined by the following procedure: • Guinea pigs are killed rapidly with a blow to the head, the heart removed and the right atria dissected free. […] Individual atrial contractions are followed with a force-displacement transducer connected to a cardiotachometer and Grass polygraph recorder. After obtaining a dose-response curve to histamine, the bath containing each atrium is flushed several times with fresh buffer and the atria re-equilibrated to basal rates. Following the return to basal rate, test compounds are added at selected final concentrations and the histamine dose-response curve is again determined in the presence of antagonist. Results are-expressed as dose-ratios, the ratio of histamine concentrations required to produce one-half of maximal stimulation in the presence and absence of antagonist, and the apparent dissociation constant of the H2-receptor antagonist pA2 is determined.

T1 sequence (P47747 whole entry): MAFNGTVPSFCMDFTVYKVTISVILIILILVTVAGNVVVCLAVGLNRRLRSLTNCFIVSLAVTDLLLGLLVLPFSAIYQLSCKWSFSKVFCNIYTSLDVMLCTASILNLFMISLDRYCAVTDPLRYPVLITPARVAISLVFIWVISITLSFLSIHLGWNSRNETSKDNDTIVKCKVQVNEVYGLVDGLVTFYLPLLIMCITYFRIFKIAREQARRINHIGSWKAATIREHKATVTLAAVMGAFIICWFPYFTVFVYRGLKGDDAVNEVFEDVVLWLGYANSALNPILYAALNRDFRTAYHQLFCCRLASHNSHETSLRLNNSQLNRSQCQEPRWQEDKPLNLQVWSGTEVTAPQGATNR

Kb (H2-receptor) [nM] | SMILES | inhibition in vivo at up to 10 mg/kg (gastric acid secretion) [%] | inhibition of acid (gastric acid secretion)
– | CNc1cc(-c2nc(C)n[nH]2)ccn1 [Example 2, 3'-Methyl-5'-(2-methylamino-4-pyridyl)-1',2',4'-triazole] | > 50 | –
≤ 1000 | CCNc1cc(-c2nc(C)n[nH]2)ccn1 [Example 3, 3'-Methyl-5'-(2-ethylamino-4-pyridyl)-1',2',4'-triazole] | > 50 | –
≤ 1000 | CCNc1cc(-c2nc(CC)n[nH]2)ccn1 [Example 6, 3'-Ethyl-5'-(2-ethylamino-4-pyridyl)-1',2',4'-triazole hemi-hydrate] | – | –
– | CCNc1cc(-c2nc(CO)n[nH]2)ccn1 [Example 8, 3'-Hydroxymethyl-5'-(2-ethylamino-4-pyridyl)-l',2',4'-triazole] | > 50 | –
≤ 1000 | CCNc1cc(-c2nc(CCNC(=O)C=Cc3cnc(C)s3)n[nH]2)ccn1 [Example 12, N-[3-(2-methyl-5-thiazolyl)acryloyl]-2-[3'-(5'-(2-ethylamino-4-pyridyl)-1',2',4'-triazolyl)]ethylamine] | > 50 | greater than 50%
– | CCNc1cc(-c2nc(CCNC(=O)COc3ccccc3)n[nH]2)ccn1 [Example 17, N-Phenoxyacetyl-2-(3'-(5'-(2-ethylamino-4-pyridyl)-1',2',4'-triazolyl))'ethylamine hemihydrate] | > 50 | –
– | CCNc1cc(-c2n[nH]c(CCNC(=O)CCc3ccccc3)n2)ccn1 [Example 20, N-(3-Phenylpropionyl)-2-(3'-(5'-(2-ethylamino-4-pyridyl)-1',2',4'-triazolyl))ethylamine] | > 50 | –
– | CCNc1cc(-c2n[nH]c(CCNC(=O)COc3cccnc3)n2)ccn1 [Example 21, N-(3-Pyridyloxyacetyl)-2-(3'-(5'-(2-ethylamino-4-pyridyl)-1',2',4'-triazolyl))ethylamine bishydrate] | > 50 | –
– | CCNc1cc(-c2n[nH]c(CCNC(=O)c3ccc(O)nc3)n2)ccn1 [Example 24, N-(6-Hydroxynicotinoyl)-2-(3'-(5'-(2-ethylamino-4-pyridyl)-1',2',4'-triazolyl))ethylamine monohydrate] | > 50 | –
– | CCNc1cc(-c2n[nH]c(CCNC(=O)c3cccc(OC)c3)n2)ccn1 [Example 26, N-(3-Methoxybenzoyl)-2-(3'-(5'-(2-ethylamino-4-pyridyl)-1',2',4'-triazolyl))ethylamine] | > 50 | –
– | CCNc1cc(C(=O)NCCc2nc(-c3ccnc(NCC)c3)n[nH]2)ccn1 [Example 27, N-(2-Ethylaminoisonicotinoyl)-2-(3'-(5'-(2-ethylamino-4-pyridyl)-1',2',4'-triazolyl))ethylamine] | > 50 | –
≤ 1000 | CCNc1cc(-c2n[nH]c(CCNC(=O)c3ccc(CN(C)C)o3)n2)ccn1 [Example 28] | – | –
≤ 1000 | CCNc1cc(-c2n[nH]c(CCNC(=O)c3csc(N=C(N)N)n3)n2)ccn1 [Example 29] | – | –
≤ 1000 | CCNc1cc(-c2n[nH]c(CCNC(=O)CCc3cccnc3)n2)ccn1 [Example 31, N-(3-Pyridylpropionoyl)-2-(3'-(5'-(2-ethylamino-4-pyridyl)-1',2',4'-triazolyl))ethylamine] | > 50 | –
≤ 1000 | CCNc1cc(-c2n[nH]c(CCNC(=O)c3cccnc3)n2)ccn1 [Example 34, N-Nicotinoyl-2-(3'-(5'-(2-ethylamino-4-pyridyl)-1',2',4'-triazolyl))ethylamine] | – | –
– | CCNc1cc(-c2n[nH]c(CCNC(=O)c3ccncc3)n2)ccn1 [Example 35, N-(Isonicotinoyl)-2-(3'-(5'-(2-ethylamino-4-pyridyl)-1',2',4'-triazolyl))ethylamine] | > 50 | –
– | CCNc1cc(-c2n[nH]c(CCNC(N)=O)n2)ccn1 [Example 36, N-(2-(3'-(5'-(2-Ethylamino-4-pyridyl)-1',2',4'-triazolyl))-ethyl)urea hydrate] | > 50 | –
≤ 1000 | CCNc1cc(-c2n[nH]c(CCNC(=NC#N)NC)n2)ccn1 [Example 39, N-Cyano-N'-(2-(3'-(5'-(2-ethylamino-4-pyridyl)-1',2',4'-triazolyl))ethyl)-N"-methylguanidine] | – | –
≤ 1000 | CCNc1cc(-c2n[nH]c(CCNC(=S)NC)n2)ccn1 [Example 41, N'-(2-(3'-(5'-(2-Ethylamino-4-pyridyl)-1',2',4'-triazolyl))-ethyl)-N'-methylthiourea] | – | greater than 50%

Source: EP0074229A1, “Triazole gastric anti-secretory agents” (PFIZER INC., priority 1981, dated 1983)
